Key:
Format in all cases: in vivo
Veronica persica = test: Test Example 5: herbicidal effect by foliage application, plastic box (symbol R); conditions: 320 g/ha, 3 weeks after application
Summary of the method: (§1)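 Greenhouse foliar test: seedlings at 14 days, grown 25° C. to 30° C. in sterilized diluvial soil; compound applied as an aqueous dilution of an emulsion; response read 3 weeks after spraying.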

rice plant = test: Test Example 5: effect on crop by foliage application, plastic box (symbol b); conditions: 320 g/ha, 3 weeks after application
Summary of the method: (§2)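 Plants were raised from seed in a greenhouse (25° C. to 30° C.) after sowing in a plastic box of sterilized diluvial soil.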

Leptochloa chinensis = test: Test Example 3: herbicidal effect by foliage application, Wagner pot (symbol D); conditions: application herbicide amount 320 g/ha
Summary of the method: (§3)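 The compound, formulated as an emulsion and diluted with water to a predetermined rate, is applied uniformly to leaves of two-week-old seedlings growing in submerged alluvial soil at 25–30 °C. Rice is included. Each plant is assessed 3 weeks later using defined criteria.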

Abutilon theophrasti = test: Test Example 5: herbicidal effect by foliage application, plastic box (symbol M); conditions: 320 g/ha, 3 weeks after application
Summary of the method: as §1

Scirpus juncoides [1] = test: Test Example 1: herbicidal activity, application before weed generation in submerged conditions (symbol B); conditions: application herbicide amount 320 g/ha
Summary of the method: (§4)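 In a flooded pot test with alluvial soil, the emulsion-formulated compound was diluted with water to a predetermined amount and applied to the floodwater immediately on the sowing day. Pots were held in a greenhouse at 25–30 °C for 3 weeks before each weed was rated.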

transplanted rice plant = test: Test Example 1: effect on crop, application before weed generation in submerged conditions (symbol a); conditions: application herbicide amount 320 g/ha
Summary of the method: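 Rice at 2.5 leaf stage transplanted into submerged soil (4 cm depth) sown with three weed species; herbicide applied before weed emergence.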

Stellaria media = test: Test Example 5: herbicidal effect by foliage application, plastic box (symbol P); conditions: 320 g/ha, 3 weeks after application
Summary of the method: as §1

rapeseed = test: Test Example 5: effect on crop by foliage application, plastic box (symbol g); conditions: 320 g/ha, 3 weeks after application
Summary of the method: as §2

Galium spurium = test: Test Example 5: herbicidal effect by foliage application, plastic box (symbol Q); conditions: 320 g/ha, 3 weeks after application
Summary of the method: as §1

[2] = system: directly sowed rice plant; test: Test Example 3: effect on crop by foliage application, Wagner pot (symbol b); conditions: application herbicide amount 320 g/ha
Summary of the method: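 Alluvial soil in a 1/10000-are Wagner pot was flooded to a water depth of 0.1–0.5 cm. Echinochloa crus-galli var. crus-galli, Leptochloa chinensis, Cyperus difformis and rice were sown into it and grown in a greenhouse at 25–30 °C.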

Amaranthus retroflexus = test: Test Example 5: herbicidal effect by foliage application, plastic box (symbol N); conditions: 320 g/ha, 3 weeks after application
Summary of the method: as §1

[3] = system: Echinochloa oryzacola Vasing.; test: Test Example 2: herbicidal activity, application during weed generation in submerged conditions (symbol A); conditions: Table 23; application herbicide amount 320 g/ha; grade 0-5 by criteria of Test Example 1
Summary of the method: (§5)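 Treatment timing was the one- to two-leaf stage, with diluted emulsifiable compound dropped onto the paddy water (depth 4 cm) over alluvial soil. All three species grew from a mixed sowing in a 25° C. to 30° C. greenhouse. Injury was judged by eye 3 weeks on.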

wheat = test: Test Example 5: effect on crop by foliage application, plastic box (symbol e); conditions: 320 g/ha, 3 weeks after application
Summary of the method: as §2

soybean = test: Test Example 5: effect on crop by foliage application, plastic box (symbol d); conditions: 320 g/ha, 3 weeks after application
Summary of the method: as §2

Setaria viridis = test: Test Example 5: herbicidal effect by foliage application, plastic box (symbol G); conditions: 320 g/ha, 3 weeks after application
Summary of the method: as §1

Lolium multiflorum Lam. = test: Test Example 5: herbicidal effect by foliage application, plastic box (symbol K); conditions: 320 g/ha, 3 weeks after application
Summary of the method: as §1

Avena fatua = test: Test Example 5: herbicidal effect by foliage application, plastic box (symbol I); conditions: 320 g/ha, 3 weeks after application
Summary of the method: as §1

Scirpus juncoides [4] = test: Test Example 2: herbicidal activity, application during weed generation in submerged conditions (symbol B); conditions: Table 23; application herbicide amount 320 g/ha; grade 0-5 by criteria of Test Example 1
Summary of the method: as §5

Digitaria ciliaris = test: Test Example 5: herbicidal effect by foliage application, plastic box (symbol F); conditions: 320 g/ha, 3 weeks after application
Summary of the method: as §1

Monochoria vaginalis [5] = test: Test Example 1: herbicidal activity, application before weed generation in submerged conditions (symbol C); conditions: application herbicide amount 320 g/ha
Summary of the method: as §4

Monochoria vaginalis [6] = test: Test Example 2: herbicidal activity, application during weed generation in submerged conditions (symbol C); conditions: Table 23; application herbicide amount 320 g/ha; grade 0-5 by criteria of Test Example 1
Summary of the method: as §5

corn = test: Test Example 5: effect on crop by foliage application, plastic box (symbol c); conditions: 320 g/ha, 3 weeks after application
Summary of the method: as §2

Cyperus difformis = test: Test Example 3: herbicidal effect by foliage application, Wagner pot (symbol E); conditions: application herbicide amount 320 g/ha
Summary of the method: as §3

Apera spica-venti = test: Test Example 5: herbicidal effect by foliage application, plastic box (symbol L); conditions: 320 g/ha, 3 weeks after application
Summary of the method: as §1

Chenopodium album = test: Test Example 5: herbicidal effect by foliage application, plastic box (symbol O); conditions: 320 g/ha, 3 weeks after application
Summary of the method: as §1

[7] = system: Echinochloa crus-galli var. crus-galli; test: Test Example 5: herbicidal effect by foliage application, plastic box (symbol H); conditions: 320 g/ha, 3 weeks after application
Summary of the method: as §1

[8] = system: Echinochloa oryzacola Vasing.; test: Test Example 1: herbicidal activity, application before weed generation in submerged conditions (symbol A); conditions: application herbicide amount 320 g/ha
Summary of the method: as §4

[9] = system: Echinochloa crus-galli var. crus-galli; test: Test Example 3: herbicidal effect by foliage application, Wagner pot (symbol H); conditions: application herbicide amount 320 g/ha
Summary of the method: as §3

Alopecurus myosuroides = test: Test Example 5: herbicidal effect by foliage application, plastic box (symbol J); conditions: 320 g/ha, 3 weeks after application
Summary of the method: as §1

beet = test: Test Example 5: effect on crop by foliage application, plastic box (symbol f); conditions: 320 g/ha, 3 weeks after application
Summary of the method: as §2

Structure (SMILES)	R: Veronica persica, herbicidal effect grade (Veronica persica)	b: directly sowed rice plant, effect on crop grade (rice plant)	herbicidal effect on D (Leptochloa chinensis), grade 0-5 (Leptochloa chinensis)	M: Abutilon theophrasti, herbicidal effect grade (Abutilon theophrasti)	Herbicidal effect grade, B: Scirpus juncoides (Scirpus juncoides [1])	Effect grade on crop, a: transplanted rice plant (transplanted rice plant)	P: Stellaria media, herbicidal effect grade (Stellaria media)	g: rapeseed, effect on crop grade (rapeseed)	Q: Galium spurium, herbicidal effect grade (Galium spurium)	effect on crop b (directly sowed rice plant), grade 0-5 [2]	N: Amaranthus retroflexus, herbicidal effect grade (Amaranthus retroflexus)	Herbicidal effect grade, A: Echinochloa oryzacola Vasing. [3]	e: wheat, effect on crop grade (wheat)	d: soybean, effect on crop grade (soybean)	G: Setaria viridis, herbicidal effect grade (Setaria viridis)	K: Lolium multiflorum Lam., herbicidal effect grade (Lolium multiflorum Lam.)	I: Avena fatua, herbicidal effect grade (Avena fatua)	Herbicidal effect grade, B: Scirpus juncoides (Scirpus juncoides [4])	F: Digitaria ciliaris, herbicidal effect grade (Digitaria ciliaris)	Herbicidal effect grade, C: Monochoria vaginalis (Monochoria vaginalis [5])	other results
CON=C(C)CC1CC(O)=C(c2c(C)cc(-c3ccc(SC)cc3)cc2C)C1=O (mixture of isomers) [6-030]	0 (Herbicidal ratio of 5% or lower (almost no effect))	1 (Herbicidal ratio of 5% or higher and lower than 20%)	5 (Herbicidal ratio of 90% or more (almost completely withered))	0 (Herbicidal ratio of 5% or lower (almost no effect))	0 (Herbicidal ratio of 5% or lower (almost no effect))	2 (Herbicidal ratio of 20% or higher and lower than 40%)	0 (Herbicidal ratio of 5% or lower (almost no effect))	3 (Herbicidal ratio of 40% or higher and lower than 70%)	0 (Herbicidal ratio of 5% or lower (almost no effect))	2 (Herbicidal ratio of 20% or higher and lower than 40%)	0 (Herbicidal ratio of 5% or lower (almost no effect))	2 (Herbicidal ratio of 20% or higher and lower than 40%)	0 (Herbicidal ratio of 5% or lower (almost no effect))	0 (Herbicidal ratio of 5% or lower (almost no effect))	4 (Herbicidal ratio of 70% or higher and lower than 90%)	1 (Herbicidal ratio of 5% or higher and lower than 20%)	0 (Herbicidal ratio of 5% or lower (almost no effect))	0 (Herbicidal ratio of 5% or lower (almost no effect))	4 (Herbicidal ratio of 70% or higher and lower than 90%)	0 (Herbicidal ratio of 5% or lower (almost no effect))	Herbicidal effect grade, C: Monochoria vaginalis (Monochoria vaginalis [6]): 0 (Herbicidal ratio of 5% or lower (almost no effect)); c: corn, effect on crop grade (corn): 0 (Herbicidal ratio of 5% or lower (almost no effect)); herbicidal effect on E, grade 0-5 (Cyperus difformis): 0 (Herbicidal ratio of 5% or lower (almost no effect)); L: Apera spica-venti, herbicidal effect grade (Apera spica-venti): 0 (Herbicidal ratio of 5% or lower (almost no effect)); O: Chenopodium album, herbicidal effect grade (Chenopodium album): 0 (Herbicidal ratio of 5% or lower (almost no effect)); H: Echinochloa crus-galli var. crus-galli, herbicidal effect grade [7]: 1 (Herbicidal ratio of 5% or higher and lower than 20%); Herbicidal effect grade, A: Echinochloa oryzacola Vasing. [8]: 3 (Herbicidal ratio of 40% or higher and lower than 70%); herbicidal effect on H (Echinochloa crus-galli var. crus-galli), grade 0-5 [9]: 4 (Herbicidal ratio of 70% or higher and lower than 90%); J: Alopecurus myosuroides, herbicidal effect grade (Alopecurus myosuroides): 1 (Herbicidal ratio of 5% or higher and lower than 20%); f: beet, effect on crop grade (beet): 0 (Herbicidal ratio of 5% or lower (almost no effect))
CON=C(C)CC1CC(O)=C(c2c(C)cc(Oc3ccc(C(F)(F)F)cn3)cc2C)C1=O (mixture of isomers) [6-054]	0 (Herbicidal ratio of 5% or lower (almost no effect))	3 (Herbicidal ratio of 40% or higher and lower than 70%)	5 (Herbicidal ratio of 90% or more (almost completely withered))	0 (Herbicidal ratio of 5% or lower (almost no effect))	0 (Herbicidal ratio of 5% or lower (almost no effect))	2 (Herbicidal ratio of 20% or higher and lower than 40%)	0 (Herbicidal ratio of 5% or lower (almost no effect))	1 (Herbicidal ratio of 5% or higher and lower than 20%)	0 (Herbicidal ratio of 5% or lower (almost no effect))	5 (Herbicidal ratio of 90% or more (almost completely withered))	0 (Herbicidal ratio of 5% or lower (almost no effect))	2 (Herbicidal ratio of 20% or higher and lower than 40%)	0 (Herbicidal ratio of 5% or lower (almost no effect))	0 (Herbicidal ratio of 5% or lower (almost no effect))	5 (Herbicidal ratio of 90% or more (almost completely withered))	4 (Herbicidal ratio of 70% or higher and lower than 90%)	3 (Herbicidal ratio of 40% or higher and lower than 70%)	1 (Herbicidal ratio of 5% or higher and lower than 20%)	4 (Herbicidal ratio of 70% or higher and lower than 90%)	0 (Herbicidal ratio of 5% or lower (almost no effect))	Herbicidal effect grade, C: Monochoria vaginalis (Monochoria vaginalis [6]): 0 (Herbicidal ratio of 5% or lower (almost no effect)); c: corn, effect on crop grade (corn): 4 (Herbicidal ratio of 70% or higher and lower than 90%); herbicidal effect on E, grade 0-5 (Cyperus difformis): 3 (Herbicidal ratio of 40% or higher and lower than 70%); L: Apera spica-venti, herbicidal effect grade (Apera spica-venti): 5 (Herbicidal ratio of 90% or more (almost completely withered)); O: Chenopodium album, herbicidal effect grade (Chenopodium album): 4 (Herbicidal ratio of 70% or higher and lower than 90%); H: Echinochloa crus-galli var. crus-galli, herbicidal effect grade [7]: 5 (Herbicidal ratio of 90% or more (almost completely withered)); Herbicidal effect grade, A: Echinochloa oryzacola Vasing. [8]: 1 (Herbicidal ratio of 5% or higher and lower than 20%); herbicidal effect on H (Echinochloa crus-galli var. crus-galli), grade 0-5 [9]: 5 (Herbicidal ratio of 90% or more (almost completely withered)); J: Alopecurus myosuroides, herbicidal effect grade (Alopecurus myosuroides): 5 (Herbicidal ratio of 90% or more (almost completely withered)); f: beet, effect on crop grade (beet): 0 (Herbicidal ratio of 5% or lower (almost no effect))
